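Grown in 96-well plates, cells were treated for 48 hours with each compound at five concentrations. Insufficient inhibition: endpoint recorded as highest concentration tested. Here, GI50 denotes the concentration required for 50% inhibition of growth. Definition used: TGI = concentration required for complete inhibition of growth.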
What was measured:
Test in all cases: NCI anticancer screen, dose series, 48 h
786-0 renal = system: 786-0 renal
A498 renal = system: A498 renal
A549 NSCLC = system: A549 NSCLC
ACHN renal = system: ACHN renal
BT-549 breast = system: BT-549 breast
CAKI-1 renal = system: CAKI-1 renal
CCRF-CEM leukemia = system: CCRF-CEM leukemia
COLO 205 colon = system: COLO 205 colon
DU-145 prostate = system: DU-145 prostate
EKVX NSCLC = system: EKVX NSCLC
HCC-2998 colon = system: HCC-2998 colon
HCT-116 colon = system: HCT-116 colon
HCT-15 colon = system: HCT-15 colon
HL-60(TB) leukemia = system: HL-60(TB) leukemia
HOP-62 NSCLC = system: HOP-62 NSCLC
HOP-92 NSCLC = system: HOP-92 NSCLC
HS 578T breast = system: HS 578T breast
HT29 colon = system: HT29 colon
IGROV1 ovarian = system: IGROV1 ovarian
K-562 leukemia = system: K-562 leukemia
KM12 colon = system: KM12 colon
LOX IMVI melanoma = system: LOX IMVI melanoma
M14 melanoma = system: M14 melanoma
MALME-3M melanoma = system: MALME-3M melanoma
MCF7 breast = system: MCF7 breast
MDA-MB-231 breast = system: MDA-MB-231 breast
MDA-MB-435 = system: MDA-MB-435
MOLT-4 leukemia = system: MOLT-4 leukemia
NCI-H226 lung = system: NCI-H226 lung
NCI-H23 lung = system: NCI-H23 lung
NCI-H460 lung = system: NCI-H460 lung
NCI-H522 lung = system: NCI-H522 lung
NCI/ADR-RES ovarian = system: NCI/ADR-RES ovarian
OVCAR-3 ovarian = system: OVCAR-3 ovarian
OVCAR-4 ovarian = system: OVCAR-4 ovarian
OVCAR-5 ovarian = system: OVCAR-5 ovarian
OVCAR-8 ovarian = system: OVCAR-8 ovarian
PC-3 prostate = system: PC-3 prostate
RPMI-8226 leukemia = system: RPMI-8226 leukemia
RXF 393 renal = system: RXF 393 renal
SF-268 CNS = system: SF-268 CNS
SF-295 CNS = system: SF-295 CNS
SF-539 CNS = system: SF-539 CNS
SK-MEL-2 melanoma = system: SK-MEL-2 melanoma
SK-MEL-28 melanoma = system: SK-MEL-28 melanoma
SK-MEL-5 melanoma = system: SK-MEL-5 melanoma
SK-OV-3 ovarian = system: SK-OV-3 ovarian
SN12C renal = system: SN12C renal
SNB-19 CNS = system: SNB-19 CNS
SNB-75 CNS = system: SNB-75 CNS
SR leukemia = system: SR leukemia
SW-620 colon = system: SW-620 colon
T-47D breast = system: T-47D breast
TK-10 renal = system: TK-10 renal
U251 CNS = system: U251 CNS
UACC-257 melanoma = system: UACC-257 melanoma
UACC-62 melanoma = system: UACC-62 melanoma
UO-31 renal = system: UO-31 renal

Compound: CNC(=O)c1cncc(/C=C/c2ccccc2Cl)c1
- GI50 (786-0 renal): > 25 µM
- TGI (786-0 renal): > 25 µM
- GI50 (A498 renal): > 25 µM
- TGI (A498 renal): > 25 µM
- GI50 (A549 NSCLC): > 25 µM
- TGI (A549 NSCLC): > 25 µM
- GI50 (ACHN renal): > 25 µM
- TGI (ACHN renal): > 25 µM
- GI50 (BT-549 breast): > 25 µM
- TGI (BT-549 breast): > 25 µM
- GI50 (CAKI-1 renal): > 25 µM
- TGI (CAKI-1 renal): > 25 µM
- GI50 (CCRF-CEM leukemia): > 25 µM
- TGI (CCRF-CEM leukemia): > 25 µM
- GI50 (COLO 205 colon): > 25 µM
- TGI (COLO 205 colon): > 25 µM
- GI50 (DU-145 prostate): > 25 µM
- TGI (DU-145 prostate): > 25 µM
- GI50 (EKVX NSCLC): > 25 µM
- TGI (EKVX NSCLC): > 25 µM
- GI50 (HCC-2998 colon): > 25 µM
- TGI (HCC-2998 colon): > 25 µM
- GI50 (HCT-116 colon): > 25 µM
- TGI (HCT-116 colon): > 25 µM
- GI50 (HCT-15 colon): > 25 µM
- TGI (HCT-15 colon): > 25 µM
- GI50 (HL-60(TB) leukemia): > 25 µM
- TGI (HL-60(TB) leukemia): > 25 µM
- GI50 (HOP-62 NSCLC): > 25 µM
- TGI (HOP-62 NSCLC): > 25 µM
- GI50 (HOP-92 NSCLC): 12.6 µM
- TGI (HOP-92 NSCLC): > 25 µM
- GI50 (HS 578T breast): 24.5 µM
- TGI (HS 578T breast): > 25 µM
- GI50 (HT29 colon): > 25 µM
- TGI (HT29 colon): > 25 µM
- GI50 (IGROV1 ovarian): > 25 µM
- TGI (IGROV1 ovarian): > 25 µM
- GI50 (K-562 leukemia): > 25 µM
- TGI (K-562 leukemia): > 25 µM
- GI50 (KM12 colon): > 25 µM
- TGI (KM12 colon): > 25 µM
- GI50 (LOX IMVI melanoma): > 25 µM
- TGI (LOX IMVI melanoma): > 25 µM
- GI50 (M14 melanoma): > 25 µM
- TGI (M14 melanoma): > 25 µM
- GI50 (MALME-3M melanoma): > 25 µM
- TGI (MALME-3M melanoma): > 25 µM
- GI50 (MCF7 breast): > 25 µM
- TGI (MCF7 breast): > 25 µM
- GI50 (MDA-MB-231 breast): > 25 µM
- TGI (MDA-MB-231 breast): > 25 µM
- GI50 (MDA-MB-435): > 25 µM
- TGI (MDA-MB-435): > 25 µM
- GI50 (MOLT-4 leukemia): > 25 µM
- TGI (MOLT-4 leukemia): > 25 µM
- GI50 (NCI-H226 lung): > 25 µM
- TGI (NCI-H226 lung): > 25 µM
- GI50 (NCI-H23 lung): > 25 µM
- TGI (NCI-H23 lung): > 25 µM
- GI50 (NCI-H460 lung): > 25 µM
- TGI (NCI-H460 lung): > 25 µM
- GI50 (NCI-H522 lung): > 25 µM
- TGI (NCI-H522 lung): > 25 µM
- GI50 (NCI/ADR-RES ovarian): > 25 µM
- TGI (NCI/ADR-RES ovarian): > 25 µM
- GI50 (OVCAR-3 ovarian): > 25 µM
- TGI (OVCAR-3 ovarian): > 25 µM
- GI50 (OVCAR-4 ovarian): > 25 µM
- TGI (OVCAR-4 ovarian): > 25 µM
- GI50 (OVCAR-5 ovarian): > 25 µM
- TGI (OVCAR-5 ovarian): > 25 µM
- GI50 (OVCAR-8 ovarian): > 25 µM
- TGI (OVCAR-8 ovarian): > 25 µM
- GI50 (PC-3 prostate): > 25 µM
- TGI (PC-3 prostate): > 25 µM
- GI50 (RPMI-8226 leukemia): > 25 µM
- TGI (RPMI-8226 leukemia): > 25 µM
- GI50 (RXF 393 renal): > 25 µM
- TGI (RXF 393 renal): > 25 µM
- GI50 (SF-268 CNS): > 25 µM
- TGI (SF-268 CNS): > 25 µM
- GI50 (SF-295 CNS): > 25 µM
- TGI (SF-295 CNS): > 25 µM
- GI50 (SF-539 CNS): > 25 µM
- TGI (SF-539 CNS): > 25 µM
- GI50 (SK-MEL-2 melanoma): > 25 µM
- TGI (SK-MEL-2 melanoma): > 25 µM
- GI50 (SK-MEL-28 melanoma): > 25 µM
- TGI (SK-MEL-28 melanoma): > 25 µM
- GI50 (SK-MEL-5 melanoma): > 25 µM
- TGI (SK-MEL-5 melanoma): > 25 µM
- GI50 (SK-OV-3 ovarian): > 25 µM
- TGI (SK-OV-3 ovarian): > 25 µM
- GI50 (SN12C renal): > 25 µM
- TGI (SN12C renal): > 25 µM
- GI50 (SNB-19 CNS): > 25 µM
- TGI (SNB-19 CNS): > 25 µM
- GI50 (SNB-75 CNS): > 19.7 µM
- TGI (SNB-75 CNS): > 25 µM
- GI50 (SR leukemia): > 22.9 µM
- TGI (SR leukemia): > 25 µM
- GI50 (SW-620 colon): > 25 µM
- TGI (SW-620 colon): > 25 µM
- GI50 (T-47D breast): > 23.6 µM
- TGI (T-47D breast): > 25 µM
- GI50 (TK-10 renal): > 25 µM
- TGI (TK-10 renal): > 25 µM
- GI50 (U251 CNS): > 25 µM
- TGI (U251 CNS): > 25 µM
- GI50 (UACC-257 melanoma): > 25 µM
- TGI (UACC-257 melanoma): > 25 µM
- GI50 (UACC-62 melanoma): > 25 µM
- TGI (UACC-62 melanoma): > 25 µM
- GI50 (UO-31 renal): > 23.6 µM
- TGI (UO-31 renal): > 25 µM
